By mortality is commonly meant the percentage killed.

The results in this text go back to patent US20250282754A1, “BICYCLIC COMPOUNDS AND THEIR USE AS PEST CONTROL AGENTS” (Pl Industries Ltd., priority 2022, published 2025).

One test relates to Bemisia tabaci. As to the kind of experiment: Bemisia tabaci leaf dip test (brinjal leaves, whitefly adults). The class given is in vivo. Particulars: foliar, dead and moribund whitefly adults 72 h after release, compared to untreated controls, read-out: percent mortality. On the procedure:
The leaf dip method was used for testing, wherein the required quantity of the compound was weighed and dissolved in a tube containing a solvent solution. The tube was put on a vortex at 2000 rpm for proper mixing and then diluted with a 0.01% Triton-X solution to the desired test concentration. Brinjal leaves were dipped in the compound solution for 10 seconds; shade dried for 20 min and then placed, with the abaxial side of the leaf up, on 4 ml of a solidified 1% agar-agar solution in respective container caps. Known numbers of freshly emerged whitefly adults were collected, using a modified aspirator, and released into a perforated container in which the cap containing the treated leaf was placed. The containers were kept in a plant growth chamber at a temperature of 25° C. and relative humidity of 70%. Observations on dead, moribund and alive adults were recorded 72 h after the release. Percent mortality was calculated by combining dead and moribund adults and comparing the result to the one of the untreated controls. The compounds 1 9 11 18 25 28 29 30 31
As for `CCCS(=O)(CCC)=Nc1cccc2nn(-c3cccnc3)cc12` [Compound 78], the mortality at 300 ppm was at least 70%.
Still for that read-out and setting: for `CS(C)(=O)=Nc1cccc2nn(-c3cncc(F)c3)cc12` [Compound 87] the value was at least 70%.
The same measure, in the same setting: for `COc1nn(-c2ccc3nn(-c4cccnc4)cc3c2)c(=O)n1Cc1cccc(F)c1` [Compound 126, 4-(3-fluorobenzyl)-5-methoxy-2-(2-(pyridin-3-yl)-2H-indazol-5-yl)-2,4-dihydro-3H-1,2,4-triazol-3-one] the value was at least 70%.
The same measure, in the same setting: for `COc1nn(-c2ccc3nn(-c4cncc(F)c4)cc3c2)c(=O)n1Cc1ccccc1F` [Compound 355, 4-(2-fluorobenzyl)-2-(2-(5-fluoropyridin-3-yl)-2H-indazol-5-yl)-5-methoxy-2,4-dihydro-3H-1,2,4-triazol-3-one] the value was at least 70%; for `CS(=O)(=Nc1ccc2nn(-c3cccnc3)cc2c1)c1cccnc1` (stereo not drawn) [Compound 30], at least 70%.

For a further test, the system named is Nilaparvata lugens. In words: Nilaparvata lugens seedling dip test (paddy seedlings, third instar nymphs). Format: in vivo. The settings on record: dead and moribund third instar nymphs 72 h after release, compared to untreated controls, read-out: percent mortality. As to the method:
The seedling dip method was used for testing, wherein the required quantity of the compound was weighed and dissolved in a tube containing a solvent solution. The tube was put on a vortex at 2000 rpm for proper mixing and then diluted with a 0.01% Triton-X solution to the desired test concentration. Paddy seedlings were dipped in the compound solution for 10 seconds, shade dried for 20 min and then the seedlings were placed in glass test tubes with the roots kept in water. 15 third instar nymphs of Nilaparvata lugens were released into each test tube and the tubes were kept in a plant growth chamber at a temperature of 25° C. and relative humidity of 75%. Observations on dead, moribund and alive nymphs were recorded 72 h after the release. Percent mortality was calculated by combining dead and moribund nymphs and comparing the result to the one of the untreated controls. The compounds
Turning to `CCCS(=O)(CCC)=Nc1cccc2nn(-c3cccnc3)cc12` [Compound 78], the mortality at 300 ppm was at least 70%.
Take `CS(C)(=O)=Nc1cccc2nn(-c3cncc(F)c3)cc12` [Compound 87]: the mortality at 300 ppm was at least 70%.
For `COc1nn(-c2ccc3nn(-c4cccnc4)cc3c2)c(=O)n1Cc1cccc(F)c1` [Compound 126, 4-(3-fluorobenzyl)-5-methoxy-2-(2-(pyridin-3-yl)-2H-indazol-5-yl)-2,4-dihydro-3H-1,2,4-triazol-3-one], the mortality at 300 ppm was at least 70%.
For `COc1nn(-c2ccc3nn(-c4cncc(F)c4)cc3c2)c(=O)n1Cc1ccccc1F` [Compound 355, 4-(2-fluorobenzyl)-2-(2-(5-fluoropyridin-3-yl)-2H-indazol-5-yl)-5-methoxy-2,4-dihydro-3H-1,2,4-triazol-3-one], the mortality at 300 ppm was at least 70%.
Same read-out and setting: for `N=S(=O)(CC1CC1)c1ccc2nn(-c3cccnc3)c(Cl)c2c1` (stereo not drawn) [Compound 454, (3-chloro-2-(pyridin-3-yl)-2H-indazol-5-yl)(cyclopropylmethyl)(imino)-λ^6-sulfanone] the value was at least 70%.
Same read-out and setting: for `COc1nn(-c2cccc3nn(-c4cncnc4)cc23)c(=O)n1Cc1ccccc1F` [Compound 357, 4-(2-fluorobenzyl)-5-methoxy-2-(2-(pyrimidin-5-yl)-2H-indazol-4-yl)-2,4-dihydro-3H-1,2,4-triazol-3-one] the value was at least 70%; for `CCCCCS(C)(=O)=Nc1ccc2nn(-c3cccnc3)cc2c1` (stereo not drawn) [Compound 27], at least 70%.
On the same count and under the same terms, for `CS(=O)(=Nc1ccc2nn(-c3cccnc3)cc2c1)c1cccnc1` (stereo not drawn) [Compound 30] the value was at least 70%.
Consider `COc1nn(-c2ccc3nn(-c4cccnc4C)cc3c2)c(=O)n1C` [Compound 113, 5-methoxy-4-methyl-2-(2-(2-methylpyridin-3-yl)-2H-indazol-5-yl)-2,4-dihydro-3H-1,2,4-triazol-3-one], for which the mortality at 300 ppm was at least 70%.
Still for that read-out and setting: for `CS(=O)(Cc1ccccc1)=Nc1ccc2nn(-c3cncnc3)cc2c1` (stereo not drawn) [Compound 16] the value was at least 70%.
On the same count and under the same terms, for `COc1nn(-c2ccc3nn(-c4ccc(C)nc4)cc3c2)c(=O)n1C` [Compound 115, 5-methoxy-4-methyl-2-(2-(6-methylpyridin-3-yl)-2H-indazol-5-yl)-2,4-dihydro-3H-1,2,4-triazol-3-one] the value was at least 70%; for `CC(=O)N=S(=O)(c1cnc2nn(-c3cncc(F)c3)cc2c1)C(C)C` (stereo not drawn) [Compound 402], at least 70%; for `COc1nn(-c2cccc3nn(-c4cccnc4)cc23)c(=O)n1Cc1ccccc1F` [Compound 356, 4-(2-fluorobenzyl)-5-methoxy-2-(2-(pyridin-3-yl)-2H-indazol-4-yl)-2,4-dihydro-3H-1,2,4-triazol-3-one], at least 70%.
Consider `COc1nn(-c2ccc3nn(-c4cnccc4C)cc3c2)c(=O)n1C` [Compound 114, 5-methoxy-4-methyl-2-(2-(4-methylpyridin-3-yl)-2H-indazol-5-yl)-2,4-dihydro-3H-1,2,4-triazol-3-one], for which the mortality at 300 ppm was at least 70%.
On the same count and under the same terms, for `CS(=O)(=Nc1ccc2nn(-c3cccnc3)cc2c1)c1ccccc1` (stereo not drawn) [Compound 21] the value was at least 70%; for `CCOc1nn(-c2cccc3nn(-c4cncnc4)cc23)c(=O)n1Cc1ccccc1F` [Compound 360, 5-ethoxy-4-(2-fluorobenzyl)-2-(2-(pyrimidin-5-yl)-2H-indazol-4-yl)-2,4-dihydro-3H-1,2,4-triazol-3-one], at least 70%; for `Cc1ccc(S(C)(=O)=Nc2ccc3nn(-c4cncc(F)c4)cc3c2)cc1` (stereo not drawn) [Compound 51], at least 70%.
The same measure, in the same setting: for `CCOc1nn(-c2cccc3nn(-c4cccnc4)cc23)c(=O)n1Cc1ccccc1F` [Compound 359, 5-ethoxy-4-(2-fluorobenzyl)-2-(2-(pyridin-3-yl)-2H-indazol-4-yl)-2,4-dihydro-3H-1,2,4-triazol-3-one] the value was at least 70%.
Still for that read-out and setting: for `CCOc1nn(-c2cccc3nn(-c4cccnc4)cc23)c(=O)n1Cc1ccc(F)cc1` [Compound 343, 5-ethoxy-4-(4-fluorobenzyl)-2-(2-(pyridin-3-yl)-2H-indazol-4-yl)-2,4-dihydro-3H-1,2,4-triazol-3-one] the value was at least 70%; for `CS(=O)(=Nc1cnc2nn(-c3cccnc3)cc2c1)c1ncccc1F` (stereo not drawn) [Compound 152], at least 70%; for `COc1nn(-c2ccc3nn(-c4cccnc4)c(Cl)c3c2)c(=O)n1C` [Compound 347, 2-(3-chloro-2-(pyridin-3-yl)-2H-indazol-5-yl)-5-methoxy-4-methyl-2,4-dihydro-3H-1,2,4-triazol-3-one], at least 70%.
On to `CCS(C)(=O)=Nc1ccc2nn(-c3cncc(F)c3)cc2c1` (stereo not drawn) [Compound 5], for which the mortality at 300 ppm is at least 70%.
On the same count and under the same terms, for `CS(C)(=O)=Nc1ccc2nn(-c3cncc(F)c3)cc2c1` [Compound 8] the value was at least 70%; for `CCN=S(=O)(CC1CCC1)c1ccc2nn(-c3cncc(F)c3)cc2c1` (stereo not drawn) [Compound 471, (cyclobutylmethyl)(ethylimino)(2-(5-fluoropyridin-3-yl)-2H-indazol-5-yl)-λ^6-sulfanone], at least 70%.
Take `CC(C)S(=O)(=NC(=O)C(F)(F)F)c1ccc2nn(-c3cncnc3)cc2c1` (stereo not drawn) [Compound 417]: the mortality at 300 ppm was at least 70%.
Consider `CC(C)S(=O)(=NC(=O)C(F)(F)F)c1ccc2nn(-c3cccnc3)cc2c1` (stereo not drawn) [Compound 394], for which the mortality at 300 ppm was at least 70%.
Same read-out and setting: for `CC(C)S(=O)(=NC(=O)C(F)F)c1ccc2nn(-c3cccnc3)cc2c1` (stereo not drawn) [Compound 396] the value was at least 70%.
Same read-out and setting: for `CS(=O)(=Nc1ccc2nn(-c3cccnc3)cc2c1)c1ccc(Cl)cc1` (stereo not drawn) [Compound 26] the value was at least 70%.
The same measure, in the same setting: for `COc1nn(-c2ccc3nn(-c4cncc(C)c4)cc3c2)c(=O)n1C` [Compound 111, 5-methoxy-4-methyl-2-(2-(5-methylpyridin-3-yl)-2H-indazol-5-yl)-2,4-dihydro-3H-1,2,4-triazol-3-one] the value was at least 70%.
Consider `CCS(=O)(=NC(=O)c1ccc2nn(-c3cccnc3)cc2c1)C(C)C` (stereo not drawn) [Compound 105, N-(ethyl(isopropyl)(oxo)-λ^6-sulfaneylidene)-2-(pyridin-3-yl)-2H-indazole-5-carboxamide], for which the mortality at 300 ppm was at least 70%.
For the compound `COc1nn(-c2ccc3nn(-c4cccnc4)cc3c2)c(=O)n1Cc1ccccc1Cl` [Compound 367, 4-(2-chlorobenzyl)-5-methoxy-2-(2-(pyridin-3-yl)-2H-indazol-5-yl)-2,4-dihydro-3H-1,2,4-triazol-3-one], the mortality at 300 ppm is at least 70%.
On the same count and under the same terms, for `CC(C)S(C)(=O)=Nc1ccc(Cl)c2nn(-c3cncc(F)c3)cc12` (stereo not drawn) [Compound 206] the value was at least 70%; for `CC(C)(C)S(C)(=O)=Nc1ccc2nn(-c3cncnc3)cc2c1` (stereo not drawn) [Compound 19], at least 70%; for `COc1nn(-c2ccc3nn(-c4cccnc4)cc3c2)c(=O)n1C1CC1` [Compound 127, 4-cyclopropyl-5-methoxy-2-(2-(pyridin-3-yl)-2H-indazol-5-yl)-2,4-dihydro-3H-1,2,4-triazol-3-one], at least 70%.
On the same count and under the same terms, for `CC(C)CS(=O)(CC(C)C)=Nc1ccc2nn(-c3cncnc3)c(Cl)c2c1` [Compound 181] the value was at least 70%; for `CC(C)S(=O)(=NC#N)c1ccc2nn(-c3cccnc3)cc2c1` (stereo not drawn) [Compound 392, N-(isopropyl(oxo)(2-(pyridin-3-yl)-2H-indazol-5-yl)-λ^6-sulfaneylidene)cyanamide], at least 70%.
Consider `CS(=O)(Cc1ccccc1)=Nc1ccc2nn(-c3cncc(F)c3)cc2c1` (stereo not drawn) [Compound 13], for which the mortality at 300 ppm is at least 70%.
On the same count and under the same terms, for `CCOc1nn(-c2cccc3nn(-c4cccnc4)cc23)c(=O)n1Cc1ccc(OC(F)(F)F)cc1` [Compound 331, 5-ethoxy-2-(2-(pyridin-3-yl)-2H-indazol-4-yl)-4-(4-(trifluoromethoxy)benzyl)-2,4-dihydro-3H-1,2,4-triazol-3-one] the value was at least 70%; for `CCCCCS(C)(=O)=Nc1ccc2nn(-c3cncc(F)c3)cc2c1` (stereo not drawn) [Compound 42], at least 70%.
Still for that read-out and setting: for `COc1nn(-c2cccc3nn(-c4cccnc4)cc23)c(=O)n1C` [Compound 125, 5-methoxy-4-methyl-2-(2-(pyridin-3-yl)-2H-indazol-4-yl)-2,4-dihydro-3H-1,2,4-triazol-3-one] the value was at least 70%; for `CS(=O)(=Nc1cnc2nn(-c3cccnc3)cc2c1)c1cccnc1Cl` (stereo not drawn) [Compound 153], at least 70%; for `CS(C)(=O)=Nc1ccc(Cl)c2nn(-c3cncc(F)c3)cc12` [Compound 202], at least 70%.
Still for that read-out and setting: for `CCCCS(=O)(CC)=Nc1ccc2nn(-c3cncc(F)c3)c(Cl)c2c1` (stereo not drawn) [Compound 194] the value was at least 70%.
